{
  "source": "patent US20080182822A1",
  "about": "“Liquid Pharmaceutical Compositions Comprising a Bisphosphonate Compound” (Besins Healthcare SA, priority 2006, published 2008)",
  "key": {"[1]": {"conditions": "rat, published data, Lin et al.; cited from earlier work"}, "ovariectomized rats [2]": {"test_system": "ovariectomized rats", "conditions": "OVX rats", "from_the_text": "(§1) Ovariectomized rats are a recognised model for bone loss study, as the surgical operation causes an estrogen deficiency which results in rapid bone loss. See Guideline on the evaluation of medicinal products in the treatment of primary osteoporosis, CPMP/EWP/552/95 available for download from the European Medicine Agency at: http://www.emea.europa.eu/.\n(§2) 13-week old rats (Sprague-Dawley, virgin female), 8 per group, were sham operated (group 1-control) or ovariectomized (OVX) (groups 2 to 7) on the day before the first day of treatment.\nFemur and L2-L5 lumbar vertebrae block Bone Mineral Density (BMD) were calculated from in vivo Dual-energy X-ray Absorptiometry (DXA) measurement at the same time points with an Hologic apparatus. BMD was also measured ex vivo on dissected femur and L4 vertebrae at the end of the treatment period."}, "[3]": {"conditions": "rat"}, "ovariectomized rats [4]": {"test_system": "ovariectomized rats", "conditions": "OVX rats", "from_the_text": "as §1, §2\nUrinary deoxypyridinoline (D-pyr) and creatinine (Creat) were determined at baseline, week 4 and week 8. The ratio of D-Pyr to Creat is a recognised marker of bone resorption. See, e.g., Christenson RH “Biochemical markers of bone metabolism: an overview” Clin Biochem 1997, 30(8), 573-593.", "remark": "listed apart in the source"}, "[5]": {"assay": "Bisphosphonate concentration at about 90% saturation in the vehicle", "format": "physicochemical", "experimental": "Compositions in various vehicles (water/ethanol or buffer/ethanol, with or without additional ingredients, water (pure aqueous)) were prepared, using each bisphosphonate at a concentration of about 90% the saturation value. For example, “90/10” denotes a 90/10 (v/v) mixture of water/ethanol; “90/10 pH6” denotes a 90/10 (v/v) mixture of phosphate buffer pH6/ethanol.\nBisphosphonate concentrations are at about 90% saturation.\nRisedronate sodium is generally administered using a dose of 35 mg of anhydrous monosodium risedronate, once a week. Advantageously, for a topical dose of 35 mg, this corresponds to 1.5 g of a solution according to one embodiment (risedronate at 90% saturation in phosphate-buffered hydroalcoholic solution 90/10 […], i.e. anhydrous monosodium risedronate at 22.4 mg/g). The same topical dose of 35 mg, corresponds to 0.8 g of another embodiment (risedronate at 90% saturation in pure water, i.e. anhydrous monosodium risedronate at 45.3 mg/g). […] The in vitro condition of application—i.e. 10 μl/1.77 cm^2—mimics an in vivo situation wherein the formulation is applied as a thin layer of 1-2 mg of formulation/cm^2."}, "[6]": {"assay": "In vitro dermal absorption, static diffusion cell (Franz cell)"}, "[7]": {"conditions": "group 4: 4.46 mg/kg daily topical (reduced from 15.6 mg/kg/d after 2 weeks)"}, "[8]": {"conditions": "group 5: 15.6 mg/kg weekly topical"}, "[9]": {"conditions": "group 7: 10.85 mg/kg twice weekly topical (reduced from 15.6 mg/kg after 2 weeks)"}, "[10]": {"conditions": "phosphate-buffered hydroalcoholic solution 90/10"}, "[11]": {"conditions": "buffered solution, compared to 100% phosphate buffer solution, FIG. 10 / FIG. 11"}},
  "note": "Where two headings read alike, the source gives them in different places.",
  "data": [
    {"smiles": "NCCCC(O)(P(=O)(O)O)P(=O)(O)O", "note": "[alendronate, 4-amino-1-hydroxybutylidene-1,1-bisphosphonic acid]", "values": [
      {"measurement": "bone recovery after oral administration", "setting": "[1]", "value": 0.9, "unit": "%"},
      {"measurement": "BMD results compared with subcutaneous injection (group 3) or control (group 1)", "setting": "ovariectomized rats [2]; topical groups 4-7, 8 weeks", "value": "similar"},
      {"measurement": "BMD in the distal metaphysis (part of femur) compared with the subcutaneous injection group (group 3)", "setting": "ovariectomized rats [2]; topically treated groups 4 and 7", "value": "statistically higher"},
      {"measurement": "bone recovery after dermal administration", "setting": "[3]; data from Example 4", "value": 0.2, "unit": "%"},
      {"measurement": "delivered dose contained in gauze wrap removed at 24 h", "setting": "[3]; dermal administration", "value": "about 10%"},
      {"measurement": "delivered dose contained in washing medium and swabs", "setting": "[3]; dermal administration, 24 h", "value": "about 46%"},
      {"measurement": "dermally delivered alendronate not absorbed", "setting": "[3]; gauze wrap + washing medium and swabs at 24 h", "value": 56, "unit": "%"},
      {"measurement": "D-pyr/Creat, Week 4", "setting": "ovariectomized rats [4]; group 3: 2 μg/kg daily sc inj", "value": "118 ± 64"},
      {"measurement": "D-pyr/Creat, Week 8", "setting": "ovariectomized rats [4]; group 3: 2 μg/kg daily sc inj", "value": "72 ± 13"},
      {"measurement": "D-pyr/Creat, Week 4", "setting": "ovariectomized rats [4]; [7]", "value": "58 ± 13"},
      {"measurement": "D-pyr/Creat, Week 8", "setting": "ovariectomized rats [4]; [7]", "value": "42 ± 15"},
      {"measurement": "D-pyr/Creat, Week 4", "setting": "ovariectomized rats [4]; [8]", "value": "138 ± 60"},
      {"measurement": "D-pyr/Creat, Week 8", "setting": "ovariectomized rats [4]; [8]", "value": "67 ± 26"},
      {"measurement": "D-pyr/Creat, Week 4", "setting": "ovariectomized rats [4]; [9]", "value": "88 ± 52"},
      {"measurement": "D-pyr/Creat, Week 8", "setting": "ovariectomized rats [4]; [9]", "value": "57 ± 24"}
    ]},
    {"smiles": "NCCCC(O)(P(=O)(O)O)P(=O)(O)O", "note": "[Sodium Alendronate]", "values": [
      {"measurement": "concentration at 90% saturation", "setting": "[5]; [10]", "value": 10.4, "unit": "mg/g"},
      {"measurement": "concentration at 90% saturation", "setting": "[5]; pure water", "value": 28.09, "unit": "mg/g"}
    ]},
    {"smiles": "O=P([O-])(O)C(O)(Cc1cccnc1)P(=O)(O)O.[Na+]", "note": "[Sodium Risedronate]", "values": [
      {"measurement": "concentration at 90% saturation", "setting": "[5]; [10]", "value": 22.4, "unit": "mg/g"},
      {"measurement": "concentration at 90% saturation", "setting": "[5]; pure water", "value": 45.3, "unit": "mg/g"}
    ]},
    {"smiles": "O=P(O)(O)C(O)(Cc1cccnc1)P(=O)(O)O", "note": "[risedronate, 1-hydroxy-2-(3-pyridyl)ethylidene-1,1-bisphosphonic acid]", "values": [
      {"measurement": "effect of glycerine on the amount recovered in the receptor fluid and the dermis", "setting": "[6]; FIG. 12 / FIG. 13", "value": "does not significantly increase"},
      {"measurement": "effect of propylene glycol (PG) on the amount recovered", "setting": "[6]; [11]", "value": "does not significantly affect"},
      {"measurement": "effect of urea on the amount recovered in the receptor fluid and the skin/dermis", "setting": "[6]; [11]", "value": "increases"},
      {"measurement": "effect of menthol on the amount recovered in the receptor fluid and dermis", "setting": "[6]; menthol at 90% of saturating concentration in 90/10 phosphate buffer/ethanol, compared to pure phosphate buffer solution, FIG. 6 / FIG. 7", "value": "does not increase"},
      {"measurement": "amount recovered in the receptor fluid and the dermis with oleic acid, compared to the 100% phosphate buffer solution", "setting": "[6]; oleic acid at 90% of maximum solubility in 90/10 phosphate buffer/ethanol with Tween 80 at 4.5%, FIG. 12 / FIG. 13", "value": "lower"},
      {"measurement": "effect of urea on the amount recovered in the receptor fluid and the skin", "setting": "[6]; urea incorporated in phosphate buffer solution, FIG. 8 / FIG. 9", "value": "neutral effect"},
      {"measurement": "recovery in the receptor fluid and the dermis at 24 hrs (crossing of the skin)", "setting": "[6]; water/alcohol compositions, FIG. 1 / FIG. 2", "value": "does cross the skin"},
      {"measurement": "effect of the increase in alcohol content on absorption, as percentage of the dose applied", "setting": "[6]; water/alcohol ratios, FIG. 1 / FIG. 2", "value": "slightly increased"}
    ]}
  ]
}
